Experiments:
[1] = measured by isoelectric focusing; prior art (European Patent 132,769 and 132,770); cited from earlier work
fasting male rabbits = assay: Hypoglycemic action after intravenous administration; format: in vivo, rabbit; conditions: i.v.; for Change in blood glucose from starting value: 6.25 microliters/kg of 2.2 mg in 1.5 ml 0.9% NaCl, 5 fasting male rabbits
Protocol: 2.2 mg of anhydrous (A-1)Thr--(AO)Arg--(B30)Des--Thr human insulin were taken up in 1.5 ml of 0.9% strength NaCl solution. 2.2 mg of human insulin, also in 1.5 ml of physiological saline solution, were used as comparison and standard substance. 6.25 microliters of sample solution/kg of live weight were in each case intravenously administered to 5 fasting male rabbits having mean weights of 3.1 kg. 6.25 microliters of standard solution per kg were likewise administered i.v. to 5 other animals. After various times, blood samples were taken and examined for blood sugar concentrations. Within the limits of error, the following measurement results were found: […]

[2] = Subcutaneous administration of a crystal suspension; format: in vivo

Substance	isoelectric point [1]	Change in blood glucose from starting value (fasting male rabbits; 1/2 h)	Change in blood glucose from starting value (fasting male rabbits; 1 h)	Change in blood glucose from starting value (fasting male rabbits; 2 h)	Change in blood glucose from starting value (fasting male rabbits; 3 h)	Change in blood glucose from starting value (fasting male rabbits; 4 h)	hypoglycemic action (fasting male rabbits; rabbits, compared with human insulin)	action profile [2]
proinsulin	5.4							
human insulin		-28%	-27%	-18%	-11%	-6%		
native insulin: unmodified native insulin	5.4							
(A-1)Thr--(AO)Arg--(B30)Des--Thr human insulin [(A-1)Thr-(AO)-Arg-(B30)Des-Thr insulin]		-31%	-31%	-20%	-3%		of the same order of magnitude as that of the (unmodified) human insulin	acts in a sustained manner
